Measurements reported in patent publication US20220298107A1, “SUBSTITUTED UREA DIHYDROOROTATE DEHYDROGENASE INHIBITORS” (Janssen Biotech, Inc., priority 2019, published 2022).

Assays:
human DHODH = human DHODH (Homo sapiens, UniProt Q02127); test: biochemical
Experimental: To detect DHODH enzyme activities, dichloroindophenol (DCIP) is added as the final electron acceptor in the assay. DCIP can accept electrons from the reduced coenzyme Q generated in the assay, or from dihydroorotate (DHO) via flavin mononucleotide (FMN) by binding presumably to the ubiquinone pocket. […] The assay buffer contained […], pH 7.5, 150 mM NaCl, 0.5 mM EDTA, and 0.1% Triton X-100 in MilliQ water. Substrate consisting of 20 mM DHO, 5 mM CoQ6, and 1 mM DCIP in assay buffer, initiates the reaction. […] Absorbance measurements were obtained using the BMG Phera Star plate-reading spectrophotomer. Purified human DHODH was purchased from Proteros (cat. No. PR-0044). Chemicals were purchased from Sigma-Aldrich, Teknova, and Avanti Polar Lipids. Liquid handling was performed using Labcyte Echo and Formulatrix Tempest.

MOLM-13 cells = test: MOLM-13 Cellular Assay; format: cell-based; conditions: Homo sapiens, MOLM-13, 72 h, read-out: MOLM-13 Cellular Assay EC50 (nM)
Experimental: MOLM-13 cells were obtained from DSMZ and were maintained in RPMI 1640+Glutamax+25 mM HEPES (Invitrogen, catalog number 72400) supplemented with 10% heat inactivated fetal bovine serum (FBS; Invitrogen, catalog number 16140). The day prior to assay set-up, cells were pelleted, resuspended in fresh media, counted, and cells were plated at 0.4×10^6 cell/mL in a T150 flask. On the day of the assay, cells were pelleted, resuspend in fresh media, counted and seeded at 5,000 cells/well in white opaque 96-well tissue culture treated microplates (Perkin Elmer, catalog number 6005680). Cells were exposed to different concentrations of test compounds at 37° C., 5% CO2 for 72 hours immediately after seeding. Cell viability was acquired on a Perkin Elmer Envision 2104 multilabel reader using the CellTiter-Glo assay (Promega) according to the manufacturer's instructions.

Sequence of human DHODH (Q02127 whole entry): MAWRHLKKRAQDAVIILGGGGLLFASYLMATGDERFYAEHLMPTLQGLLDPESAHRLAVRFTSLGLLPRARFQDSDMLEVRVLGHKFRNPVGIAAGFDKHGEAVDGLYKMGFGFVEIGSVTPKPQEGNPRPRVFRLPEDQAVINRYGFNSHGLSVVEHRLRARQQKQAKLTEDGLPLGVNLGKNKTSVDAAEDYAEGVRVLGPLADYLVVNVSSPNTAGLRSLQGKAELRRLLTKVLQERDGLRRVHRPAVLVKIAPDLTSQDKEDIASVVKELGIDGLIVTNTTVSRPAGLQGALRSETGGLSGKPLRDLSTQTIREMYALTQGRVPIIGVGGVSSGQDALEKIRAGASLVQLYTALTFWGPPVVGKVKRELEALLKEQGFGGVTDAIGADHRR

Compound `Cc1n[nH]c(Cl)c1NC(=O)c1cc(F)c(NC(=O)N2CCC[C@@H]2CO)cc1O[C@@H](C)C(F)(F)F` [Example 37, (R)-N-(4-((5-Chloro-3-methyl-1H-pyrazol-4-yl)carbamoyl)-2-fluoro-5-(((S)-1,1,1-trifluoropropan-2-yl)oxy)phenyl)-2-(hydroxymethyl)pyrrolidine-1-carboxamide] has an EC50 (human DHODH) of 0.7 nM and an EC50 (MOLM-13 cells) of 11 nM.
`COc1nccc(C)c1NC(=O)c1cc(F)c(NC(=O)N2CCC[C@@H]2CO)cc1O[C@@H](C)C(F)(F)F` [Example 38, (R)-N-(2-Fluoro-4-((2-methoxy-4-methylpyridin-3-yl)carbamoyl)-5-(((S)-1,1,1-trifluoropropan-2-yl)oxy)phenyl)-2-(hydroxymethyl)pyrrolidine-1-carboxamide] showed an EC50 (human DHODH) of 0.17 nM and an EC50 (MOLM-13 cells) of 16 nM.
In the case of `COc1ncc(C)c(NC(=O)c2cc(F)c(NC(=O)N3CCC[C@@H]3CO)cc2O[C@@H](C)C(F)(F)F)c1Cl` [Example 39, (R)-N-(4-((3-Chloro-2-methoxy-5-methylpyridin-4-yl)carbamoyl)-2-fluoro-5-(((S)-1,1,1-trifluoropropan-2-yl)oxy)phenyl)-2-(hydroxymethyl)pyrrolidine-1-carboxamide], the EC50 (human DHODH) is reported as 2.6 nM and the EC50 (MOLM-13 cells) is reported as 3.5 nM.
Compound `COc1ncc(C)c(NC(=O)c2cc(F)c(NC(=O)N3CCC[C@@H]3CO)cc2O[C@@H](C)C(F)(F)F)c1C` [Example 40, (R)-N-(2-Fluoro-4-((2-methoxy-3,5-dimethylpyridin-4-yl)carbamoyl)-5-(((S)-1,1,1-trifluoropropan-2-yl)oxy)phenyl)-2-(hydroxymethyl)pyrrolidine-1-carboxamide] has an EC50 (human DHODH) of 3.6 nM and an EC50 (MOLM-13 cells) of 25 nM.
Compound `CCN(CC(F)F)C(=O)Nc1cc(O[C@@H](C)C(F)(F)F)c(C(=O)Nc2c(C)ccnc2Cl)cc1F` [Example 41, (S)-N-(2-Chloro-4-methylpyridin-3-yl)-4-(3-(2,2-difluoroethyl)-3-ethylureido)-5-fluoro-2-((1,1,1-trifluoropropan-2-yl)oxy)benzamide] has an EC50 (human DHODH) of 17 nM and an EC50 (MOLM-13 cells) of 37 nM.
In the case of `CCN(CC(F)F)C(=O)Nc1cc(O[C@@H](C)C(F)(F)F)c(C(=O)Nc2c(C)n[nH]c2Cl)cc1F` [Example 42, (S)-N-(5-Chloro-3-methyl-1H-pyrazol-4-yl)-4-(3-(2,2-difluoroethyl)-3-ethylureido)-5-fluoro-2-((1,1,1-trifluoropropan-2-yl)oxy)benzamide], the EC50 (human DHODH) is reported as 3 nM and the EC50 (MOLM-13 cells) is reported as 11 nM.
Work on `CCN(CC(F)F)C(=O)Nc1cc(O[C@@H](C)C(F)(F)F)c(C(=O)Nc2c(C)ccnc2OC)cc1F` [Example 43, (S)-4-(3-(2,2-difluoroethyl)-3-ethylureido)-5-fluoro-N-(2-methoxy-4-methylpyridin-3-yl)-2-((1,1,1-trifluoropropan-2-yl)oxy)benzamide] yielded an EC50 (human DHODH) of 24 nM and an EC50 (MOLM-13 cells) of 30 nM.
Work on `CCN(CC(F)F)C(=O)Nc1cc(O[C@@H](C)C(F)(F)F)c(C(=O)Nc2c(C)cnc(OC)c2Cl)cc1F` [Example 44, (S)-N-(3-Chloro-2-methoxy-5-methylpyridin-4-yl)-4-(3-(2,2-difluoroethyl)-3-ethylureido)-5-fluoro-2-((1,1,1-trifluoropropan-2-yl)oxy)benzamide] yielded an EC50 (human DHODH) of 7 nM and an EC50 (MOLM-13 cells) of 9.6 nM.
Compound `CCN(CC(F)F)C(=O)Nc1cc(O[C@@H](C)C(F)(F)F)c(C(=O)Nc2c(C)cnc(OC)c2C)cc1F` [Example 45, (S)-4-(3-(2,2-Difluoroethyl)-3-ethylureido)-5-fluoro-N-(2-methoxy-3,5-dimethylpyridin-4-yl)-2-((1,1,1-trifluoropropan-2-yl)oxy)benzamide] has an EC50 (human DHODH) of 27 nM and an EC50 (MOLM-13 cells) of 63 nM.
